The OligoGym collection
Bases are written 5' to 3'; sugars and linkages follow in the same order, as letters with counts (s phosphorothioate, o phosphodiester; PS: all linkages phosphorothioate). The collection does not say whether C is 5-methylated. l = locked nucleic acid (LNA); d = 2'-deoxy (DNA)

Target: Tau
Experiment: rat primary cortical neurons, FLIPR, 25 uM ASO

Row | Sequence | calcium oscillation score
1 | ACTTTCCTAATTCCCAAATT (sugars l3 d15 l2, PS) | 63.3 % of control
2 | TATTAATTCATAAATGACTA (sugars l3 d14 l3, PS) | 40.3 % of control
3 | CCATTTTCCATATAATTTTA (sugars l3 d14 l3, PS) | 56.3 % of control
4 | AGACCACATTTCCATCC (sugars l2 d13 l2, PS) | 72 % of control
5 | CAGCATTTCCATTTCATC (sugars l2 d13 l3, PS) | 52.7 % of control
6 | AACCAACTCAACATTACCCT (sugars l2 d16 l2, PS) | 86.7 % of control
7 | TTTCTCTCTTAACTTTATTT (sugars l4 d12 l4, PS) | 90.4 % of control
8 | CTCTTCAAATCATTCAAT (sugars l4 d10 l4, PS) | 69.7 % of control
9 | GTTATACAGTTGGCCCTACC (sugars l3 d14 l3, PS) | 14.3 % of control
10 | CTGATCATAATCCTACC (sugars l3 d11 l3, PS) | 54.9 % of control
11 | CTTTATTTCCAAATTCACTT (sugars l3 d14 l3, PS) | ≥ 200 % of control
12 | GGTGCTCTGGTCAAGG (sugars l3 d10 l3, PS) | 14.9 % of control
13 | TTATTTCCAAATTCACTTTT (sugars lllldddddddddlddldll, PS) | 96.5 % of control
14 | CACATTTGCAAACCACA (sugars l3 d10 l4, PS) | 67.4 % of control
15 | TTTGTAGACTATTTG (sugars l3 d9 l3, PS) | 0 % of control
16 | CAAGAGGCACAAGTC (sugars l3 d9 l3, PS) | 112 % of control
17 | GCACCCTCCAAATCACCA (sugars l1 d15 l2, PS) | 50.6 % of control
18 | TTTATTTCCAAATTCACTTT (sugars l5 d11 l4, PS) | 115 % of control
19 | ATTTATTAATTCATAAATGA (sugars l3 d14 l3, PS) | 46.3 % of control
20 | CTCTTCCACTACAAGC (sugars l3 d11 l2, PS) | 46.2 % of control
21 | TCTGGCATGGGCACG (sugars l3 d9 l3, PS) | 119 % of control
22 | AGTGATTAACCAATTAACCG (sugars l3 d14 l3, PS) | 5.18 % of control

Row | Sequence | calcium oscillation score
23 | TCGAAACCAAGGTCCCACCA (sugars l3 d14 l3, PS) | 28.2 % of control
24 | CCTTTGAAAGTCCTTT (sugars l4 d9 l3, PS) | 96.4 % of control
25 | CTTGGCTTTGGCGTTC (sugars l3 d10 l3, PS) | 2.61 % of control
26 | TACACTGTCCTTTAAAC (sugars l4 d11 l2, PS) | 66.1 % of control
27 | CAGAACTAAATTTACC (sugars l4 d8 l4, PS) | 51.1 % of control
28 | TCATAGTCACTCTGGT (sugars l3 d10 l3, PS) | 85.7 % of control
29 | GGGACGTGGGTGATATTGTC (sugars l3 d14 l3, PS) | 0 % of control
30 | TAGCAAACAGGATACA (sugars l3 d10 l3, PS) | 49.8 % of control
31 | ATAGATTTTACTACTC (sugars l4 d8 l4, PS) | 73.3 % of control
32 | ACCTTGCTCAGGTCAACTGG (sugars l3 d14 l3, PS) | 2.59 % of control
33 | TTGTGATGCAGGAG (sugars l3 d8 l3, PS) | 0 % of control
34 | CTTAATTTCACCCTCA (sugars l3 d10 l3, PS) | 40.3 % of control
35 | ATTTCCAAATTCACTTTTAC (sugars llldldddddddddllddll, PS) | 131 % of control
36 | CAGTCCCGTCTTTGCT (sugars l3 d10 l3, PS) | 0 % of control
37 | TTTACAAAGTCCACTTT (sugars l4 d9 l4, PS) | 53 % of control
38 | CAACTCAACATTACCCTTA (sugars l4 d13 l2, PS) | 81.1 % of control
39 | CCAGCGTGATCTTCCATCAC (sugars l4 d11 l5, PS) | 124 % of control
40 | CTGGTTTATGATGGATGTTG (sugars l3 d14 l3, PS) | 0 % of control
41 | TAAGTGATTAACCAATTAAC (sugars l3 d14 l3, PS) | 27.2 % of control
42 | ATTTTACTACTCTCTTTTCT (sugars l3 d14 l3, PS) | 68 % of control
43 | AAAAAGTCCATTCCCTC (sugars l3 d10 l4, PS) | 64 % of control
44 | TGGTTTGTAGACTATTTGCA (sugars l3 d14 l3, PS) | 0 % of control

Row | Sequence | calcium oscillation score
45 | TGGAAAGATGAAATTTGCTC (sugars l3 d14 l3, PS) | 5.81 % of control
46 | CAGGTCTGGCATGGGCACGG (sugars l3 d14 l3, PS) | 0 % of control
47 | TCCAAACTTTTACTCTG (sugars l3 d10 l4, PS) | 31.2 % of control
48 | AGGAAATCCACAGGGA (sugars l3 d10 l3, PS) | 0 % of control
49 | CCAGACCATCAATTTCC (sugars l2 d13 l2, PS) | 83.3 % of control
50 | TCGATGCTGCCGGTGG (sugars l3 d10 l3, PS) | 33.9 % of control
51 | CGACTTGTACACGATC (sugars l3 d10 l3, PS) | 48.9 % of control
52 | CTTTCTACTCAATTCCAG (sugars l3 d12 l3, PS) | 45.5 % of control
53 | ATTTCCAAATTCACTTTTAC (sugars llldldddddddddldldll, PS) | 123 % of control
54 | ACCTCTTAGTCATCTTCCC (sugars l2 d15 l2, PS) | 67.9 % of control
55 | CTAATTACATTTTTTCTTTT (sugars l4 d12 l4, PS) | 60.1 % of control
56 | GAAAGATGAAATTTGCTCTT (sugars l3 d14 l3, PS) | 100 % of control
57 | TCGATGCTGCCGGT (sugars l3 d8 l3, PS) | 13 % of control
58 | CTTCTCCAGTATTTCTTC (sugars l2 d13 l3, PS) | 69.4 % of control
59 | TAGTTATACAGTTGGCCCTA (sugars l3 d14 l3, PS) | 19.1 % of control
60 | CTTGTGATGCAGGA (sugars l3 d8 l3, PS) | 70.5 % of control
61 | CGTGATCTTCCATC (sugars l3 d8 l3, PS) | 85.1 % of control
62 | TCTTATTGCTTTCCAAT (sugars l3 d10 l4, PS) | 101 % of control
63 | TCCAGCCATATTTCAACTCT (sugars l3 d14 l3, PS) | 45.2 % of control
64 | AACTAAATTTACCTCA (sugars l4 d8 l4, PS) | 88.1 % of control
65 | GCGGCGCAGGCGCGAG (sugars l3 d10 l3, PS) | 73.6 % of control
66 | ATTTCCAAATTCACTTTTAC (sugars lldlldddddddddldldll, PS) | 83 % of control

Row | Sequence | calcium oscillation score
67 | TTGGAGCCTACATAGA (sugars l3 d10 l3, PS) | 0 % of control
68 | TTTATTTCCAAATTCACTTT (sugars l1 d17 l2, PS) | 163 % of control
69 | ACATCTCTCTAGACATC (sugars l4 d10 l3, PS) | 68.4 % of control
70 | TCCTTCTAAGTACAAT (sugars l4 d8 l4, PS) | 54.1 % of control
71 | GATGTTGCCTAATGAG (sugars l3 d10 l3, PS) | 0 % of control
72 | CACAACCCAAGATTCC (sugars l3 d10 l3, PS) | 58.8 % of control
73 | AATTAAATTTCTCCCTG (sugars l4 d9 l4, PS) | 34.1 % of control
74 | CGTCCCAGCGTGATCTTCCA (sugars l4 d11 l5, PS) | 42.6 % of control
75 | ACTTGGGTGGAGTACGGACC (sugars l3 d14 l3, PS) | 0 % of control
76 | AACATATATATTACACTTC (sugars l4 d11 l4, PS) | 111 % of control
77 | GGTGATATTGTCCAGGGACC (sugars l3 d14 l3, PS) | 0 % of control
78 | CAAGAGTCACTGCACTGCAT (sugars l3 d14 l3, PS) | 50 % of control
79 | ATCCAAGTCAATGCCTGGCT (sugars l3 d14 l3, PS) | 34.2 % of control
80 | CAATCCATTTATATTCTTTT (sugars l4 d12 l4, PS) | 63.2 % of control
81 | TTATTTCCAAATTCACTTTT (sugars l1 d17 l2, PS) | 166 % of control
82 | TTATTTCCAAATTCACTTTT (sugars l3 d14 l3, PS) | ≥ 200 % of control
83 | TCTAGTTATACAGTTGGCCC (sugars l3 d14 l3, PS) | 21.4 % of control
84 | AATAGATCTTTCCCCTCC (sugars l2 d13 l3, PS) | 76.7 % of control
85 | GCAGGCGCGAGCAG (sugars l3 d8 l3, PS) | 40.6 % of control
86 | TATTTCCAAATTCACTTTTA (sugars lldldldddddddddldlll, PS) | 129 % of control
87 | TAATCACTCATGCCTTA (sugars l4 d9 l4, PS) | 62.9 % of control
88 | AATTCATAAATGACTATACT (sugars l3 d14 l3, PS) | 40.3 % of control

Row | Sequence | calcium oscillation score
89 | TTATTTCCAAATTCACTTTT (sugars lldllddddddddddlldll, PS) | 121 % of control
90 | CTTACACATAGCTTCT (sugars l4 d8 l4, PS) | 47.1 % of control
91 | TTGGCGTTCTCGCGGA (sugars l3 d10 l3, PS) | 0 % of control
92 | GCAAACCACTCTTATTC (sugars l4 d10 l3, PS) | 86.8 % of control
93 | CATGATTGTGGGCTTA (sugars l3 d10 l3, PS) | 0 % of control
94 | ATTTCCAAATTCACTTTTAC (sugars llddlldddddddddlldll, PS) | 122 % of control
95 | TGGATCAGAGGGTCTG (sugars l3 d10 l3, PS) | 7.41 % of control
96 | AATAAGAAAGGAACGC (sugars l4 d7 l5, PS) | 97.6 % of control
97 | TGCCTAATGAGCCACA (sugars l3 d10 l3, PS) | 44.4 % of control
98 | CTGGCCACCTCCTGGT (sugars l3 d10 l3, PS) | 16.1 % of control
99 | CACTTTCCTAATTCCCAA (sugars l2 d13 l3, PS) | 72.7 % of control
100 | TGCTTACACACCACACAC (sugars l2 d13 l3, PS) | 60.7 % of control
101 | ACTCAGTTCTCTATAAT (sugars l4 d9 l4, PS) | 64.1 % of control
102 | ATTATCATCCATTCTGA (sugars l2 d11 l4, PS) | 45.6 % of control
103 | CTGGTTTATGATGGAT (sugars l3 d10 l3, PS) | 0 % of control
104 | CATCACTTCGAACTCC (sugars l3 d10 l3, PS) | ≥ 200 % of control
105 | TAGACCACATTTCCATC (sugars l3 d11 l3, PS) | 79.1 % of control
106 | TTTATTTCCAAATTCACTTT (sugars ldlllddddddddddlldll, PS) | 83.1 % of control
107 | CCTCTAGTTTTACCTAA (sugars l2 d11 l4, PS) | 72.9 % of control
108 | TCCTAAGTCAACCACACC (sugars l2 d14 l2, PS) | 69 % of control
